For one assay, the system named is Calu-1 cells. As to the kind of experiment: Anti-proliferation (viability) of NSCLC Calu-1 cells, 3 days (Table 7, FIG. 2B). It counts as cell-based. Conditions: Homo sapiens, 72 h; Calu-1 cells, 3 days, 10-point serial dilution; read-out: GI IC50 in Calu-1. In outline:
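Cells treated with heterobifunctional compounds in 10-point serial dilution, then viability measured; Calu-1 NSCLC cells exposed for 3 days, ER+ T47D breast cancer cells for 6 days.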

The next assay deals with MCF7 cells. Kind of assay: Anti-proliferation (viability) of MCF7 cells (Table 7, FIG. 2B). It counts as cell-based. Conditions: Homo sapiens, MCF7, MCF7 cells, 3-6 days, 10-point serial dilution; read-out: GI IC50 in MCF-7.

Experimental findings from US20260297081A1, “COMPOUNDS AND METHODS OF TREATING CANCERS” (Cullgen Inc., priority 2023, published 2026) are described below.

Structures are written as SMILES. Some results are limits rather than exact numbers.

A word on the IC50: it is the concentration that inhibits the measured activity by half.

For the molecule `CC(=O)c1c(C)c2cnc(Nc3ccc(N4CCN(CCC(=O)N5CCC(Nc6nc(NC(C)C)ccc6C(=O)Nc6cn(C)c(C7CC7)n6)C5)CC4)cn3)nc2n(C2CCCC2)c1=O` (stereo not drawn) [CPD-274, 2-((1-(3-(4-(6-((6-acetyl-8-cyclopentyl-5-methyl-7-oxo-7,8-dihydropyrido[2,3-d]pyrimidin-2-yl)amino)pyridin-3-yl)piperazin-1-yl)propanoyl)pyrrolidin-3-yl)amino)-N-(2-cyclopropyl-1-methyl-1H-imidazol-4-yl)-6-(isopropylamino)nicotinamide], the figures for the IC50 in the assay with Calu-1 cells and in the assay on MCF7 cells were 0.01 to 0.05 µM and above 0.1 µM, respectively.

As for `CC(=O)c1c(C)c2cnc(Nc3ccc(N4CCN(C5CCN(C(=O)N6CC7(CCC(Nc8nc(NC(C)C)ccc8C(=O)Nc8ccc(N(C)C)nn8)C7)C6)C5)CC4)cn3)nc2n(C2CCCC2)c1=O` (stereo not drawn) [CPD-545, 2-((2-(3-(4-(6-((6-acetyl-8-cyclopentyl-5-methyl-7-oxo-7,8-dihydropyrido[2,3-d]pyrimidin-2-yl)amino)pyridin-3-yl)piperazin-1-yl)pyrrolidine-1-carbonyl)-2-azaspiro[3.4]octan-6-yl)amino)-N-(6-(dimethylamino)pyridazin-3-yl)-6-(isopropylamino)nicotinamide], the values for the IC50 in the assay on Calu-1 cells and in the assay on MCF7 cells were 0.01 to 0.05 µM and above 0.1 µM, respectively.

For `CC(=O)c1c(C)c2cnc(Nc3ccc(N4CCC(N5CCC(C(=O)NC6CC(Nc7nc(NC(C)C)ccc7C(=O)Nc7ccc(N(C)C)nn7)C6)C5)CC4)cn3)nc2n(C2CCCC2)c1=O` (stereo not drawn) [CPD-460, 2-((3-(1-(1-(6-((6-acetyl-8-cyclopentyl-5-methyl-7-oxo-7,8-dihydropyrido[2,3-d]pyrimidin-2-yl)amino)pyridin-3-yl)piperidin-4-yl)pyrrolidine-3-carboxamido)cyclobutyl)amino)-N-(6-(dimethylamino)pyridazin-3-yl)-6-(isopropylamino)nicotinamide], the IC50 in the assay on Calu-1 cells is at most 0.01 µM; in the assay with MCF7 cells, above 0.1 µM.

As for `[2H]C([2H])([2H])Nc1ccc(C(=O)Nc2cn(C)c(C3CC3)n2)c(NC2CC(NC(=O)N3CCN(c4ccc(Nc5ncc6c(C)c(C(C)=O)c(=O)n(C7CCCC7)c6n5)nc4)CC3)C2)n1` (stereo not drawn) [CPD-287, 4-(6-((6-acetyl-8-cyclopentyl-5-methyl-7-oxo-7,8-dihydropyrido[2,3-d]pyrimidin-2-yl)amino)pyridin-3-yl)-N-(3-((3-((2-cyclopropyl-1-methyl-1H-imidazol-4-yl)carbamoyl)-6-((methyl-d3)amino)pyridin-2-yl)amino)cyclobutyl)piperazine-1-carboxamide], the values for the IC50 in the assay with Calu-1 cells and in the assay with MCF7 cells were at least 0.05 µM and above 0.1 µM, respectively.

In the case of `CC(=O)c1c(C)c2cnc(Nc3ccc(CN4CCN(CC(=O)NC5CC(Nc6nc(NC(C)C)ccc6C(=O)Nc6ccc(N(C)C)nn6)C5)CC4)cn3)nc2n(C2CCCC2)c1=O` (stereo not drawn) [CPD-475, 2-((3-(2-(4-((6-((6-acetyl-8-cyclopentyl-5-methyl-7-oxo-7,8-dihydropyrido[2,3-d]pyrimidin-2-yl)amino)pyridin-3-yl)methyl)piperazin-1-yl)acetamido)cyclobutyl)amino)-N-(6-(dimethylamino)pyridazin-3-yl)-6-(isopropylamino)nicotinamide], the IC50 in the assay on Calu-1 cells was at most 0.01 µM; in the assay on MCF7 cells it was above 0.1 µM.

As to `CNc1ccc(C(=O)Nc2cc(C)on2)c(NC2CC(CNC(=O)CN3CCN(c4ccc(Nc5ncc6c(C)c(C(C)=O)c(=O)n(C7CCCC7)c6n5)nc4)CC3)C2)n1` (stereo not drawn) [CPD-281, 2-((3-((2-(4-(6-((6-acetyl-8-cyclopentyl-5-methyl-7-oxo-7,8-dihydropyrido[2,3-d]pyrimidin-2-yl)amino)pyridin-3-yl)piperazin-1-yl)acetamido)methyl)cyclobutyl)amino)-6-(methylamino)-N-(5-methylisoxazol-3-yl)nicotinamide], the figures for the IC50 in the assay on Calu-1 cells and with MCF7 cells were 0.01 to 0.05 µM and above 0.1 µM, respectively.

For `CC(=O)c1c(C)c2cnc(Nc3ccc(CN4CCN(CC(=O)N5CCC(Nc6nc(NC(C)C)ccc6C(=O)Nc6cc7n(n6)CCC7)CC5)CC4)cn3)nc2n(C2CCCC2)c1=O` [CPD-530, 2-((1-(2-(4-((6-((6-acetyl-8-cyclopentyl-5-methyl-7-oxo-7,8-dihydropyrido[2,3-d]pyrimidin-2-yl)amino)pyridin-3-yl)methyl)piperazin-1-yl)acetyl)piperidin-4-yl)amino)-N-(5,6-dihydro-4H-pyrrolo[1,2-b]pyrazol-2-yl)-6-(isopropylamino)nicotinamide], the IC50 was 0.01 to 0.05 µM in the assay with Calu-1 cells and above 0.1 µM in the assay on MCF7 cells.

For the molecule `CC(=O)c1c(C)c2cnc(Nc3ccc(N4CCN(C5CCN(C(=O)[C@H]6CC[C@H](Nc7nc(C(F)(F)F)ccc7C(=O)Nc7ccc(N(C)C)nn7)CC6)C5)CC4)cn3)nc2n(C2CCCC2)c1=O` (stereo partly drawn) [CPD-571, 2-((trans-4-(3-(4-(6-((6-acetyl-8-cyclopentyl-5-methyl-7-oxo-7,8-dihydropyrido[2,3-d]pyrimidin-2-yl)amino)pyridin-3-yl)piperazin-1-yl)pyrrolidine-1-carbonyl)cyclohexyl)amino)-N-(6-(dimethylamino)pyridazin-3-yl)-6-(trifluoromethyl)nicotinamide], the figures for the IC50 with Calu-1 cells and in the assay with MCF7 cells were at most 0.01 µM and below 0.05 µM, respectively.

Turning to `CC(=O)c1c(C)c2cnc(Nc3ccc(CN4CCN(CC(=O)N5CCC6(CCC(Nc7nc(NC(C)C)ccc7C(=O)Nc7cc8n(n7)CCC8)C6)C5)CC4)cn3)nc2n(C2CCCC2)c1=O` (stereo not drawn) [CPD-549, 2-((2-(2-(4-((6-((6-acetyl-8-cyclopentyl-5-methyl-7-oxo-7,8-dihydropyrido[2,3-d]pyrimidin-2-yl)amino)pyridin-3-yl)methyl)piperazin-1-yl)acetyl)-2-azaspiro[4.4]nonan-7-yl)amino)-N-(5,6-dihydro-4H-pyrrolo[1,2-b]pyrazol-2-yl)-6-(isopropylamino)nicotinamide], the values for the IC50 with Calu-1 cells and with MCF7 cells were at most 0.01 µM and below 0.05 µM, respectively.

Take `CC(=O)c1c(C)c2cnc(Nc3ccc(N4CCN(CC(=O)NC5CC(Nc6nc(NC(C)C)ccc6C(=O)Nc6ccc(N(C)C)nn6)C5)CC4)cn3)nc2n(C2CCCC2)c1=O` (stereo not drawn) [CPD-280, 2-((3-(2-(4-(6-((6-acetyl-8-cyclopentyl-5-methyl-7-oxo-7,8-dihydropyrido[2,3-d]pyrimidin-2-yl)amino)pyridin-3-yl)piperazin-1-yl)acetamido)cyclobutyl)amino)-N-(6-(dimethylamino)pyridazin-3-yl)-6-(isopropylamino)nicotinamide]: the IC50 was at most 0.01 µM in the assay on Calu-1 cells and 0.05 to 0.1 µM with MCF7 cells.

With `[2H]C([2H])([2H])Nc1ccc(C(=O)Nc2cn(C)c(C3CC3)n2)c(NC[C@H]2CC[C@H](NC(=O)CN3CCN(c4ccc(Nc5ncc6c(C)c(C(C)=O)c(=O)n(C7CCCC7)c6n5)nc4)CC3)CC2)n1` [CPD-276, 2-(((trans-4-(2-(4-(6-((6-acetyl-8-cyclopentyl-5-methyl-7-oxo-7,8-dihydropyrido[2,3-d]pyrimidin-2-yl)amino)pyridin-3-yl)piperazin-1-yl)acetamido)cyclohexyl)methyl)amino)-N-(2-cyclopropyl-1-methyl-1H-imidazol-4-yl)-6-((methyl-d3)amino)nicotinamide], the IC50 is at least 0.05 µM in the assay with Calu-1 cells and above 0.1 µM with MCF7 cells.

For the molecule `[2H]C([2H])([2H])Nc1ccc(C(=O)Nc2ccc(N(C)C)nn2)c(NC2CCN(C(=O)CN3CCN(Cc4ccc(Nc5ncc6c(C)c(C(C)=O)c(=O)n(C7CCCC7)c6n5)nc4)CC3)CC2)n1` [CPD-474, 2-((1-(2-(4-((6-((6-acetyl-8-cyclopentyl-5-methyl-7-oxo-7,8-dihydropyrido[2,3-d]pyrimidin-2-yl)amino)pyridin-3-yl)methyl)piperazin-1-yl)acetyl)piperidin-4-yl)amino)-N-(6-(dimethylamino)pyridazin-3-yl)-6-((methyl-d3)amino)nicotinamide], the 50% inhibitory concentration (IC50) was at most 0.01 µM in the assay with Calu-1 cells and 0.05 to 0.1 µM with MCF7 cells.

Regarding `CC(=O)c1c(C)c2cnc(Nc3ccc(N4CCN(C5CCN(C(=O)[C@H]6CC[C@H](Nc7cc(C(C)C)ccc7C(=O)Nc7ccc(N(C)C)nn7)CC6)C5)CC4)cn3)nc2n(C2CCCC2)c1=O` (stereo partly drawn) [CPD-528, 2-((trans-4-(3-(4-(6-((6-acetyl-8-cyclopentyl-5-methyl-7-oxo-7,8-dihydropyrido[2,3-d]pyrimidin-2-yl)amino)pyridin-3-yl)piperazin-1-yl)pyrrolidine-1-carbonyl)cyclohexyl)amino)-N-(6-(dimethylamino)pyridazin-3-yl)-4-isopropylbenzamide], the IC50 in the assay with Calu-1 cells was at most 0.01 µM; in the assay with MCF7 cells, below 0.05 µM.

Consider `CC(=O)c1c(C)c2cnc(Nc3ccc(N4CC5(CN(CCC(=O)N6CC7(CC(Nc8nc(NC(C)C)ccc8C(=O)Nc8ccc(N(C)C)nn8)C7)C6)C5)C4)cn3)nc2n(C2CCCC2)c1=O` [CPD-455, 2-((2-(3-(6-(6-((6-acetyl-8-cyclopentyl-5-methyl-7-oxo-7,8-dihydropyrido[2,3-d]pyrimidin-2-yl)amino)pyridin-3-yl)-2,6-diazaspiro[3.3]heptan-2-yl)propanoyl)-2-azaspiro[3.3]heptan-6-yl)amino)-N-(6-(dimethylamino)pyridazin-3-yl)-6-(isopropylamino)nicotinamide], for which the results for the half-inhibitory concentration (IC50) with Calu-1 cells and with MCF7 cells were at most 0.01 µM and below 0.05 µM, respectively.

With `CCc1ccc(C(=O)Nc2ccc(N(C)C)nn2)c(N[C@H]2CC[C@H](C(=O)N3CCC(N4CCN(c5ccc(Nc6ncc7c(C)c(C(C)=O)c(=O)n(C8CCCC8)c7n6)nc5)CC4)C3)CC2)c1` (stereo partly drawn) [CPD-526, 2-((trans-4-(3-(4-(6-((6-acetyl-8-cyclopentyl-5-methyl-7-oxo-7,8-dihydropyrido[2,3-d]pyrimidin-2-yl)amino)pyridin-3-yl)piperazin-1-yl)pyrrolidine-1-carbonyl)cyclohexyl)amino)-N-(6-(dimethylamino)pyridazin-3-yl)-4-ethylbenzamide], the IC50 with Calu-1 cells was at most 0.01 µM; with MCF7 cells, below 0.05 µM.
